Test results taken from patent US7795278B2 (sanofi-aventis Deutschland GmbH, priority 2004, dated 2010).

What was measured:
[1] = molecular target: recombinantly expressed human PARP-1 enzyme (Homo sapiens, UniProt P09874); assay: PARP enzyme assay (half-maximum inhibitor concentration); format: biochemical; conditions: DNA-activated PARP-1, 200 μM NAD, tritium-labeled NAD incorporation, room temperature, 1 hour, pH 8.0
Method: Pharmacological Investigations PARP Enzyme Assay
The half-maximum inhibitor concentration is determined by incubating the substances to be tested with the DNA-activated, recombinantly expressed and purified PARP-1 enzyme. Specifically, various concentrations of the test substance are incubated in 50 μl of reaction solution, which contains 50 mM Tris, 5 mM MgCl2, 1 mM DTT, 200 μM NAD, 0.1 mCi/ml tritium-labeled NAD, 0.1 mg/ml DNA, 0.1 mg/ml histones, 2 μg/ml recombinantly expressed human PARP-1 enzyme, pH=8.0, at room temperature for 1 hour. The reaction is stopped by adding 150 μl of 20% trichloroacetic acid, and the radiolabeled protein constituents are precipitated. After incubation on ice for 10 minutes, the labeled, insoluble constituents are separated off through a glass fiber filter and, after washing with 20% trichloroacetic acid three times, the radioactivity incorporated by the PARP-1 enzyme is measured by radioluminescence.
IC-50 values were determined in this way for the following compounds: […]

[2] = system: rat cardiomyocytes (H9c2 cell line); assay: ATP consumption assay in cardiomyoblasts; format: cell-based; conditions: H9c2 cells, 15 min preincubation, 300 μM H2O2 for 1 hour, cellular ATP content by luciferase reaction
Method: ATP Consumption Assay in Cardiomyoblasts
The activity of the test substances in cells is ascertained by means of an ATP consumption assay. For this purpose, rat cardiomyocytes (H9c2 cell line) are seeded in a 96-well plate (40 000 cells per well, RPMI1640; 10% FCS) and kept at 37° C. and 5% CO2 for 16 hours. The cells are washed with PBS and incubated under identical conditions with various concentrations of the test substance in medium for 15 min. After addition of 300 μM H2O2, the cells are kept at 37° C., 5% CO2 for a further hour and lysed, and the cellular content of ATP is determined by means of luciferase reaction. The half-maximum effective concentration of the substances (EC50) is determined as the concentration at which the ATP content of the cells has reached half the value which can be measured with a maximally effective concentration of the same substance.
(§1) EC-50 values and apparent Ki values are determined in this way for all the following selected compounds: […]

[3] = molecular target: purified human PARP-1 enzyme (Homo sapiens, UniProt P09874); assay: Enzyme inhibition assay with various substrate concentrations (apparent Ki); format: biochemical; conditions: various concentrations of tritium-labeled NAD, room temperature, 10 min; Michaelis-Menten, purely competitive inhibition assumed; read-out: app. Ki
Method: Enzyme Inhibition Assay with Various Substrate Concentrations
Apparent Ki values of the test substances are determined in an enzymatic assay using the purified human PARP-1 enzyme. Specifically, various concentrations of the tritium-labeled substrate NAD are incubated with an identical concentration of the test substance in 50 μl of reaction solution, which contains 50 mM tris, 5 mM MgCl2, 1 mM DTT, 0.1 mg/ml DNA, 0.1 mg/ml histones, 2 μg/ml recombinantly expressed human PARP-1 enzyme, pH=8.0, at room temperature for 10 min. The reaction is stopped by adding 150 μl of 20% trichloroacetic acid, and the radiolabeled protein constituents are precipitated. After incubation on ice for 10 minutes, the labeled, insoluble constituents are separated off through a glass fiber filter and, after washing with 20% trichloroacetic acid three times, the radioactivity incorporated by the PARP-1 enzyme is measured by radioluminescence. Evaluation of the incorporation rates determined in this way as a function of the concentration of the substrate NAD affords the apparent Ki values according to Michaelis-Menten kinetics, assuming that the mechanism of inhibition is purely competitive.
as §1

purified human PARP-1 enzyme, sequence (P09874 whole entry): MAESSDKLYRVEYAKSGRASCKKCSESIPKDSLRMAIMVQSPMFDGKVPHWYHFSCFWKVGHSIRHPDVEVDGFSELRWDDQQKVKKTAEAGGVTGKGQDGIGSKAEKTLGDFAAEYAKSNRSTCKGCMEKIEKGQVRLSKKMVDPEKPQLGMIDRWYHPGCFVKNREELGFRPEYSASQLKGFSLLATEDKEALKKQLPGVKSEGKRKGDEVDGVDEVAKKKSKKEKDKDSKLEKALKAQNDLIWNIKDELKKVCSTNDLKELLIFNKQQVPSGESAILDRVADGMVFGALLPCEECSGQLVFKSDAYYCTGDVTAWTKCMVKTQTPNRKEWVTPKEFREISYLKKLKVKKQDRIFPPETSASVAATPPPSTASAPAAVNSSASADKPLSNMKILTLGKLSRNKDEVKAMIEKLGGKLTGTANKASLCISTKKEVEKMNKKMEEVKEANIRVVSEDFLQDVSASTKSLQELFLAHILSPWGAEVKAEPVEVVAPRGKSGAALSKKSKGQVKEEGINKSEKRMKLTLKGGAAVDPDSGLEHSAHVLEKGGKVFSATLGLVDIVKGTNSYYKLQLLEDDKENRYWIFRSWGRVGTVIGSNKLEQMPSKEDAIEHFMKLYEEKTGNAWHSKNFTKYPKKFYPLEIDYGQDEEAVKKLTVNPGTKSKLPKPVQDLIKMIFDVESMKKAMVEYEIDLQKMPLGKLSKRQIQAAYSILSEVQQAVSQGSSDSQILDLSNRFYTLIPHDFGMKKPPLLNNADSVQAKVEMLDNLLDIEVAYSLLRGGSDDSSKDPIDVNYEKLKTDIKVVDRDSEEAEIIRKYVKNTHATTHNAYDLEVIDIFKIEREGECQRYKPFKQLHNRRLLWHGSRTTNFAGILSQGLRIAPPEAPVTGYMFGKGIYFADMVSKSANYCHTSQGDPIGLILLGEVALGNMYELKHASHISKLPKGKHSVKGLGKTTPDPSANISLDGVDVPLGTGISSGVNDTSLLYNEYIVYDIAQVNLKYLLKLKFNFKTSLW
recombinantly expressed human PARP-1 enzyme, sequence (P09874 whole entry): as above

Molecule | IC50 [1] | EC50 [2] | Ki [3]
Cc1[nH]c(=O)c2c(c1-c1ccc(CN3CCCC3)o1)CCCC2 [Example 54, 3-methyl-4-(5-pyrrolidin-1-ylmethylfuran-2-yl)-5,6,7,8-tetrahydro-2H-isoquinolin-1-one] | 300 nM | 330 nM | 15 nM
O=c1[nH]cc(-c2ccc(CNCC(O)c3ccccc3)o2)c2c1CCCC2 (centres unmarked) [Example 72, 4-{5-[(2-hydroxy-2-phenyl-ethylamino)methyl]furan-2-yl}-5,6,7,8-tetrahydro-2H-isoquinolin-1-one] | 110 nM | 380 nM | 24 nM
CC(=O)c1cccc(Nc2c(C)[nH]c(=O)c3c2CCCC3)c1 [Example 16, 4-(3-acetylphenylamino)-3-methyl-5,6,7,8-tetrahydro-2H-isoquinolin-1-one] | 90 nM | 200 nM | 54 nM
O=C(NCCN1CCCC1)c1cccc(Nc2c[nH]c(=O)c3c2CCCC3)c1 [Example 24, 3-(1-Oxo-1,2,5,6,7,8-hexahydroisoquinolin-4-ylamino)-N-(2-pyrrolidin-1-ylethyl)benzamide] | 220 nM | – | 31 nM
CCCCNCc1ccc(-c2c[nH]c(=O)c3c2CCCC3)o1 [Example 78, 4-(5-butylaminomethylfuran-2-yl)-5,6,7,8-tetrahydro-2H-isoquinolin-1-one] | 250 nM | 520 nM | 40 nM
Cc1[nH]c(=O)c2c(c1-c1ccc(CO)o1)CCCC2 [Example 9, 4-(5-Hydroxymethylfuran-2-yl)-3-methyl-5,6,7,8-tetrahydro-2H-isoquinolin-1-one] | 280 nM | 1570 nM | 16 nM
Cc1[nH]c(=O)c2c(c1-c1cccnc1)CCCC2 [Example 19, 3-methyl-4-pyridin-3-yl-5,6,7,8-tetrahydro-2H-isoquinolin-1-one] | 740 nM | – | –
O=C1OCc2ccc(Nc3c[nH]c(=O)c4c3CCCC4)cc21 [Example 10] | 1430 nM | – | –
CN(Cc1ccncc1)C(=O)c1cncc(-c2c[nH]c(=O)c3c2CCCC3)c1 [Example 38, N-methyl-5-(1-oxo-1,2,5,6,7,8-hexahydroisoquinolin-4-yl)-N-pyridin-4-ylmethylnicotinamide] | 3190 nM | – | –
CCN1CCCC1CNC(=O)c1cncc(-c2c[nH]c(=O)c3c2CCCC3)c1 (centres unmarked) [Example 49, N-(1-ethylpyrrolidin-2-ylmethyl)-5-(1-oxo-1,2,5,6,7,8-hexahydroisoquinolin-4-yl)nicotinamide] | 5110 nM | – | –
Cn1c(CNCc2ccc(-c3c[nH]c(=O)c4c3CCCC4)o2)nc2ccccc21 [Example 55, 4-(5-{[(1-methyl-1H-benzoimidazol-2-ylmethyl)amino]methyl}furan-2-yl)-5,6,7,8-tetrahydro-2H-isoquinolin-1-one] | 4540 nM | – | –
4-(6-morpholin-4-ylpyridin-3-yl-amino)-5,6,7,8-tetrahydro-2H-isoquinolin-1-one [Example 4] | 6350 nM | – | –
